# Activity calls are given as the source filed them. The rule behind the calls is not given here.
# Assays:
# [1] = biological target: T1, Relaxin-3 receptor 1 (Homo sapiens) (UniProt Q9NSD7); experiment: Agonist activity at human RXFP3 expressed in CHOK1 cells assessed as inhibition of forskolin-stimulated intracellular cAMP accumulation preincubated for 30 mins followed by forskolin-stimulation and measured after 30 mins by HTRF assay relative to relaxin-3; format: functional, cell-based
# T1 sequence (whole entry): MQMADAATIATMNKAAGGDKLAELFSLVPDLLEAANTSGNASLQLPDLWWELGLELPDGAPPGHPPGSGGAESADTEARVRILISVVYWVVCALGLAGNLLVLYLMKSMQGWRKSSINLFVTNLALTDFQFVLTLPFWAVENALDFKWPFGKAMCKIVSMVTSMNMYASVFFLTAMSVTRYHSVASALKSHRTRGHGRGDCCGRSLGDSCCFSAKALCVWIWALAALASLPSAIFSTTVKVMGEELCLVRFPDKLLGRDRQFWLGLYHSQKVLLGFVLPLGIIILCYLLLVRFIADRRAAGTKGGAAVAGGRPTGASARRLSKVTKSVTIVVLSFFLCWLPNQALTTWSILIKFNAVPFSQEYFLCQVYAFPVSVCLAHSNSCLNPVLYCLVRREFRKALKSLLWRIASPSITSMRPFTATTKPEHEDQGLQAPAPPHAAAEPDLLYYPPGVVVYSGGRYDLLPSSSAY
# [2] = biological target: T2, Relaxin-3 receptor 2 (Homo sapiens, UniProt Q8TDU9); experiment: Agonist activity at human RXFP4 expressed in CHOK1 cells assessed as inhibition of forskolin-stimulated intracellular cAMP accumulation preincubated for 30 mins followed by forskolin-stimulation and measured after 30 mins by HTRF assay relative to relaxin-3; format: functional, cell-based
# T2 sequence (Q8TDU9 whole entry): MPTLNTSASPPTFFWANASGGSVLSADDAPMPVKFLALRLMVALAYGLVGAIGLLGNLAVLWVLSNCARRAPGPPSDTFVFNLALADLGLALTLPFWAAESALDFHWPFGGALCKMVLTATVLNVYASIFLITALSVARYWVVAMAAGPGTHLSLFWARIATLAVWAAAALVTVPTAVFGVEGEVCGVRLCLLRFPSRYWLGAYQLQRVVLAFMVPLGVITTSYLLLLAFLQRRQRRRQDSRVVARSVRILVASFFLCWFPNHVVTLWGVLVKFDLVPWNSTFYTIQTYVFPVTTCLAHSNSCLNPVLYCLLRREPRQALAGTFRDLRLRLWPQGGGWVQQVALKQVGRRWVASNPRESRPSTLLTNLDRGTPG
# [3] = biological target: T3, Relaxin-3 receptor 1 (Homo sapiens, UniProt Q9NSD7); experiment: Agonist activity at human RXFP3 expressed in CHOK1 cells assessed as inhibition of forskolin-stimulated intracellular cAMP accumulation preincubated for 30 mins followed by forskolin-stimulation and measured after 30 mins by HTRF assay; format: functional, cell-based
# T3 sequence (Q9NSD7 whole entry): T1 sequence (whole entry)
# [4] = biological target: T2, Relaxin-3 receptor 2; experiment: Agonist activity at human RXFP4 expressed in CHOK1 cells assessed as inhibition of forskolin-stimulated intracellular cAMP accumulation preincubated for 30 mins followed by forskolin-stimulation and measured after 30 mins by HTRF assay; format: functional, cell-based
# [5] = system: Rattus norvegicus; experiment: Induction of food intake in Sprague-Dawley rat at 1 umol, icv after 4 hrs (reference value: 2.5 +/- 0.6g); format: functional
# [6] = organism: Cricetulus griseus; experiment: Induction of JNK phosphorylation CHOK1 cells at 5 uM by Western blot analysis
# [7] = biological target: Relaxin-3 receptor 1/2 (Homo sapiens) (UniProt Q9NSD7+Q8TDU9); experiment: Agonist activity at human RXFP3/4 in human U2OS cells assessed as induction of beta-arrestin recruitment incubated for 1 hr by chemiluminescence based PathHunter beta-arrestin assay relative to relaxin-3; format: cell-based
# Sequence of Relaxin-3 receptor 1/2 (Homo sapiens) (Q8TDU9 whole entry, looked up, one chain of several): as the sequence (Q8TDU9 whole entry) above
# [8] = biological target: T1, Relaxin-3 receptor 1 (Homo sapiens); experiment: Agonist activity at human RXFP3 expressed in CHOK1 cells assessed as induction of p38 MAPK phosphorylation at 5 uM by Western blot analysis; format: cell-based
# [9] = system: Rattus norvegicus; experiment: Induction of food intake in satiated Sprague-Dawley rat at 1 umol, icv after 0 to 2 hrs (reference value: 1.7 +/- 0.5g); format: functional
# [10] = biological target: T1, Relaxin-3 receptor 1 (Homo sapiens); experiment: Agonist activity at human RXFP3 expressed in CHOK1 cells assessed as induction of JNK phosphorylation at 5 uM by Western blot analysis; format: cell-based
# [11] = system: CHO-K1; experiment: Effect on total JNK protein levels in CHOK1 cells at 5 uM by Western blot analysis; format: ADME, cell-based, Cricetulus griseus; settings: chinese hamster, cho-k1, 5 µM
# [12] = organism: Cricetulus griseus; experiment: Induction of ERK1/2 phosphorylation CHOK1 cells at 5 uM by Western blot analysis
# [13] = system: Rattus norvegicus; experiment: Induction of food intake in Sprague-Dawley rat at 1 umol, icv after 24 hrs (reference value: 24.1 +/- 2.7g); format: functional
# [14] = biological target: T2, Relaxin-3 receptor 2; experiment: Agonist activity at human RXFP4 expressed in CHOK1 cell membranes assessed as stimulation of [35S]-GTPgammaS binding after 3 hrs by scintillation counting method; format: functional
# [15] = biological target: T1, Relaxin-3 receptor 1 (Homo sapiens); experiment: Agonist activity at human RXFP3 expressed in CHOK1 cells assessed as induction of ERK1/2 phosphorylation at 5 uM by Western blot analysis; format: cell-based
# [16] = organism: Cricetulus griseus; experiment: Induction of p38 MAPK phosphorylation CHOK1 cells at 5 uM by Western blot analysis
# [17] = system: CHO-K1; experiment: Effect on total p38 MAPK protein levels in CHOK1 cells at 5 uM by Western blot analysis; format: ADME, cell-based, Cricetulus griseus; settings: chinese hamster, cho-k1, 5 µM
# [18] = system: CHO-K1; experiment: Effect on total ERK1/2 protein levels in CHOK1 cells at 5 uM by Western blot analysis; format: ADME, cell-based, Cricetulus griseus; settings: chinese hamster, cho-k1, 5 µM
Emax [1],Emax [2],EC50 [3],EC50 [4],Activity [6],Emax [7],Activity [8],Activity [10],Activity [12],EC50 [14],Activity [15],Activity [16],Structure (SMILES),Activity [5],Activity [9],Activity [11],Activity [13],Activity [17],Activity [18]
77.7%,113%,800 nM,4 nM,,,,,,,,,Cc1cc(O)cc2c(/C=N/NC(=N)NCCc3ccc(Cl)c(Cl)c3)c[nH]c12,,,,,,
105%,100%,,2 nM,inactive,79.2%,inactive,Active,inactive,11 nM,Active,inactive,CCc1cc(O)cc2c(/C=N/NC(=N)NCCc3ccc(Cl)cc3)c[nH]c12,7.1 g,3.5 g,Non-Toxic,35.3 g,Non-Toxic,Non-Toxic
,99 to 99.2%,,58 nM,,,,,,,,,COc1cc(C)c2[nH]cc(/C=N/NC(=N)NCCc3ccc(Cl)c(Cl)c3)c2c1,,,,,,
55.7%,113%,1300 nM,100 nM,,,,,,,,,COc1cc(C)c2[nH]cc(/C=N/NC(=N)NCCc3ccc(Cl)cc3)c2c1,,,,,,
